Measured values as given in ChEMBL document CHEMBL4842342, “Amidoxime prodrugs convert to potent cell-active multimodal inhibitors of the dengue virus protease” (Eur J Med Chem, 2021).
Calls of active or inactive are those of the source. The calls are words filed in the database; no cut-off is given here.

molecular target: T1, Genome polyprotein (dengue virus type 2, UniProt P29990); assay: Inhibition of DENV2 NS2B-NS3 protease; conditions: not given

| SMILES | IC50 |
| --- | --- |
| N/C(=N\O)c1cccc(-c2ccc3c(c2)c2cc(-c4cccc(/C(N)=N/O)c4)ccc2n3S(=O)(=O)c2ccccc2Br)c1 | Not Active |
| N/C(=N\O)c1cccc(-c2ccc3c(c2)c2cc(-c4cccc(/C(N)=N/O)c4)ccc2n3S(=O)(=O)c2ccccc2OC(F)(F)F)c1 | Not Active |
| COc1ccc(S(=O)(=O)n2c3ccc(-c4cccc(/C(N)=N/O)c4)cc3c3cc(-c4cccc(/C(N)=N/O)c4)ccc32)cc1 | Not Active |
| COc1cccc(S(=O)(=O)n2c3ccc(-c4cccc(/C(N)=N/O)c4)cc3c3cc(-c4cccc(/C(N)=N/O)c4)ccc32)c1 | Not Active |
| N/C(=N\O)c1cccc(-c2ccc3c(c2)c2cc(-c4cccc(/C(N)=N/O)c4)ccc2n3S(=O)(=O)c2cccc(C(F)(F)F)c2)c1 | Not Active |
| N/C(=N\O)c1cccc(-c2ccc3c(c2)c2cc(-c4cccc(/C(N)=N/O)c4)ccc2n3S(=O)(=O)c2cccc(OC(F)(F)F)c2)c1 | Not Active |

same assay, conditions: read-out: IC50

| SMILES | IC50 [µM] |
| --- | --- |
| COc1ccc(S(=O)(=O)n2c3ccc(-c4cccc(C(=N)N)c4)cc3c3cc(-c4cccc(C(=N)N)c4)ccc32)cc1 | 6.6 |
| N=C(N)c1cccc(-c2ccc3c(c2)c2cc(-c4cccc(C(=N)N)c4)ccc2n3S(=O)(=O)c2cccc(C(F)(F)F)c2)c1 | 2.9 |
| COc1cccc(Cn2c3ccc(-c4cccc(-c5noc(=O)[nH]5)c4)cc3c3cc(-c4cccc(-c5noc(=O)[nH]5)c4)ccc32)c1 | 121 |
| COc1cccc(S(=O)(=O)n2c3ccc(-c4cccc(C(=N)N)c4)cc3c3cc(-c4cccc(C(=N)N)c4)ccc32)c1 | 4.5 |
| N=C(N)c1cccc(-c2ccc3c(c2)c2cc(-c4cccc(C(=N)N)c4)ccc2n3S(=O)(=O)c2ccccc2OC(F)(F)F)c1 | 9.8 |
| COc1cccc(Cn2c3ccc(-c4cccc(C(=N)N)c4)cc3c3cc(-c4cccc(C(=N)N)c4)ccc32)c1 | 2.71 |
| N=C(N)c1cccc(-c2ccc3c(c2)c2cc(-c4cccc(C(=N)N)c4)ccc2n3S(=O)(=O)c2ccccc2Br)c1 | 8.8 |
| N=C(N)c1cccc(-c2ccc3c(c2)c2cc(-c4cccc(C(=N)N)c4)ccc2n3S(=O)(=O)c2cccc(OC(F)(F)F)c2)c1 | 3.1 |

test system: dengue virus type 2; assay: Antiviral activity against Dengue virus 2 measured at 48 hrs post-infection; assay type: functional, organism-based; conditions: not given

| SMILES | EC50 |
| --- | --- |
| CN(C)CCCn1c2ccc(-c3cccc(/C(N)=N/O)c3)cc2c2cc(-c3cccc(/C(N)=N/O)c3)ccc21 | Not Active |
| Cn1c2ccc(-c3cccc(/C(N)=N/O)c3)cc2c2cc(-c3cccc(/C(N)=N/O)c3)ccc21 | Not Active |

same assay, conditions: Dengue virus, 48 h; read-out: EC50

| SMILES | EC50 [µM] |
| --- | --- |
| COc1ccc(S(=O)(=O)n2c3ccc(-c4cccc(/C(N)=N/O)c4)cc3c3cc(-c4cccc(/C(N)=N/O)c4)ccc32)c(OC)c1 | 1.8 |
| COc1ccc(Br)cc1S(=O)(=O)n1c2ccc(-c3cccc(/C(N)=N/O)c3)cc2c2cc(-c3cccc(/C(N)=N/O)c3)ccc21 | 4.9 |
| N/C(=N\O)c1cccc(-c2ccc3c(c2)c2cc(-c4cccc(/C(N)=N/O)c4)ccc2n3S(=O)(=O)c2ccccc2Br)c1 | 7.6 |
| Cc1ccccc1S(=O)(=O)n1c2ccc(-c3cccc(/C(N)=N/O)c3)cc2c2cc(-c3cccc(/C(N)=N/O)c3)ccc21 | 8.6 |
| COc1ccc(S(=O)(=O)n2c3ccc(-c4cccc(C(=N)N)c4)cc3c3cc(-c4cccc(C(=N)N)c4)ccc32)cc1 | 9.5 |
| N/C(=N\O)c1cccc(-c2ccc3c(c2)c2cc(-c4cccc(/C(N)=N/O)c4)ccc2n3Cc2cccc(Br)c2)c1 | 1.1 |
| N=C(N)c1cccc(-c2ccc3c(c2)c2cc(-c4cccc(C(=N)N)c4)ccc2n3S(=O)(=O)c2cccc(C(F)(F)F)c2)c1 | 7.3 |
| COc1ccc(F)cc1S(=O)(=O)n1c2ccc(-c3cccc(/C(N)=N/O)c3)cc2c2cc(-c3cccc(/C(N)=N/O)c3)ccc21 | 2.8 |
| CCn1c2ccc(-c3cccc(/C(N)=N/O)c3)cc2c2cc(-c3cccc(/C(N)=N/O)c3)ccc21 | 1.5 |
| N/C(=N\O)c1cccc(-c2ccc3c(c2)c2cc(-c4cccc(/C(N)=N/O)c4)ccc2n3Cc2ccc(Br)c(F)c2)c1 | 1.4 |
| N/C(=N\O)c1cccc(-c2ccc3c(c2)c2cc(-c4cccc(/C(N)=N/O)c4)ccc2n3S(=O)(=O)c2cccc(Cl)c2)c1 | 7.6 |
| COc1cccc(Cn2c3ccc(-c4cccc(-c5noc(=O)[nH]5)c4)cc3c3cc(-c4cccc(-c5noc(=O)[nH]5)c4)ccc32)c1 | 14.5 |
| COc1cccc(S(=O)(=O)n2c3ccc(-c4cccc(C(=N)N)c4)cc3c3cc(-c4cccc(C(=N)N)c4)ccc32)c1 | 26.2 |
| N=C(N)c1cccc(-c2ccc3c(c2)c2cc(-c4cccc(C(=N)N)c4)ccc2n3S(=O)(=O)c2ccccc2OC(F)(F)F)c1 | 5.6 |
| N/C(=N\O)c1cccc(-c2ccc3c(c2)c2cc(-c4cccc(/C(N)=N/O)c4)ccc2n3S(=O)(=O)c2ccccc2OC(F)(F)F)c1 | 1.9 |
| COc1cccc(Cn2c3ccc(-c4cccc(C(=N)N)c4)cc3c3cc(-c4cccc(C(=N)N)c4)ccc32)c1 | 6.6 |
| COc1ccc(S(=O)(=O)n2c3ccc(-c4cccc(/C(N)=N/O)c4)cc3c3cc(-c4cccc(/C(N)=N/O)c4)ccc32)cc1 | 9.6 |
| N=C(N)c1cccc(-c2ccc3c(c2)c2cc(-c4cccc(C(=N)N)c4)ccc2n3S(=O)(=O)c2ccccc2Br)c1 | 6.9 |
| COc1cccc(S(=O)(=O)n2c3ccc(-c4cccc(/C(N)=N/O)c4)cc3c3cc(-c4cccc(/C(N)=N/O)c4)ccc32)c1 | 8.7 |
| N/C(=N\O)c1cccc(-c2ccc3c(c2)c2cc(-c4cccc(/C(N)=N/O)c4)ccc2n3S(=O)(=O)c2cccc(C(F)(F)F)c2)c1 | 5 |
| N/C(=N\O)c1cccc(-c2ccc3c(c2)c2cc(-c4cccc(/C(N)=N/O)c4)ccc2n3S(=O)(=O)c2cccc(OC(F)(F)F)c2)c1 | 7.7 |
| N=C(N)c1cccc(-c2ccc3c(c2)c2cc(-c4cccc(C(=N)N)c4)ccc2n3S(=O)(=O)c2cccc(OC(F)(F)F)c2)c1 | 8.1 |

molecular target: T1, Genome polyprotein; assay: Inhibition of NS2B-NS3 protease in DENV2 EDEN2 infected in human Huh-7 cells; assay type: cell-based; conditions: not given

| SMILES | IC50 [µM] |
| --- | --- |
| N/C(=N\O)c1cccc(-c2ccc3c(c2)c2cc(-c4cccc(/C(N)=N/O)c4)ccc2n3Cc2cccc(Br)c2)c1 | 18 |

test system: dengue virus type 2; assay: Antiviral activity against Dengue virus 2 EDEN2 infected in human Huh-7 cells; assay type: functional, organism-based; conditions: EDEN2, Huh-7

| SMILES | EC50 [µM] |
| --- | --- |
| N/C(=N\O)c1cccc(-c2ccc3c(c2)c2cc(-c4cccc(/C(N)=N/O)c4)ccc2n3Cc2cccc(Br)c2)c1 | 1.1 |

test system: not listed separately; assay: Cytotoxicity against human Huh-7 cells assessed as reduction in cell viability; assay type: cell-based; conditions: not given

| SMILES | CC50 [µM] |
| --- | --- |
| N/C(=N\O)c1cccc(-c2ccc3c(c2)c2cc(-c4cccc(/C(N)=N/O)c4)ccc2n3Cc2cccc(Br)c2)c1 | > 100 |

test system: dengue virus type 2; assay: Antiviral activity against DENV2 D2Y10 virus infected in human PBMC cells in presence of 4G2 antibody; assay type: functional, organism-based; conditions: not given

| SMILES | EC50 [µM] |
| --- | --- |
| N/C(=N\O)c1cccc(-c2ccc3c(c2)c2cc(-c4cccc(/C(N)=N/O)c4)ccc2n3Cc2cccc(Br)c2)c1 | 1.66 |

test system: not listed separately; assay: Cytotoxicity against human PBMC assessed as reduction in cell viability; conditions: not given

| SMILES | CC50 [µM] |
| --- | --- |
| N/C(=N\O)c1cccc(-c2ccc3c(c2)c2cc(-c4cccc(/C(N)=N/O)c4)ccc2n3Cc2cccc(Br)c2)c1 | > 100 |

test system: dengue virus type 1; assay: Antiviral activity against DENV1; assay type: functional, organism-based; conditions: not given

| SMILES | EC50 [µM] |
| --- | --- |
| N/C(=N\O)c1cccc(-c2ccc3c(c2)c2cc(-c4cccc(/C(N)=N/O)c4)ccc2n3Cc2cccc(Br)c2)c1 | 5.9 |

test system: dengue virus type 2; assay: Antiviral activity against DENV2; assay type: functional, organism-based; conditions: not given

| SMILES | EC50 [µM] |
| --- | --- |
| N/C(=N\O)c1cccc(-c2ccc3c(c2)c2cc(-c4cccc(/C(N)=N/O)c4)ccc2n3Cc2cccc(Br)c2)c1 | 1.4 |

test system: dengue virus type 3; assay: Antiviral activity against DENV3; assay type: functional, organism-based; conditions: not given

| SMILES | EC50 [µM] |
| --- | --- |
| N/C(=N\O)c1cccc(-c2ccc3c(c2)c2cc(-c4cccc(/C(N)=N/O)c4)ccc2n3Cc2cccc(Br)c2)c1 | 5.1 |

test system: dengue virus type 4; assay: Antiviral activity against DENV4; assay type: functional, organism-based; conditions: not given

| SMILES | EC50 [µM] |
| --- | --- |
| N/C(=N\O)c1cccc(-c2ccc3c(c2)c2cc(-c4cccc(/C(N)=N/O)c4)ccc2n3Cc2cccc(Br)c2)c1 | 1.7 |

test system: dengue virus type 2; assay: Antiviral activity against DENV2 infected in human Huh-7 cells assessed as log reduction in intracellular viral RNA synthesis at 10 uM treated at 6 hrs post-viral infection and measured after 12 hrs by real time RT-PCR method; assay type: functional; conditions: not given

| SMILES | log(activity) |
| --- | --- |
| N/C(=N\O)c1cccc(-c2ccc3c(c2)c2cc(-c4cccc(/C(N)=N/O)c4)ccc2n3Cc2cccc(Br)c2)c1 | 2 |
| COc1cccc(S(=O)(=O)n2c3ccc(-c4cccc(/C(N)=N/O)c4)cc3c3cc(-c4cccc(/C(N)=N/O)c4)ccc32)c1 | 1 |

test system: dengue virus type 2; assay: Antiviral activity against DENV2 infected in human Huh-7 cells assessed as log reduction in extracellular viral RNA synthesis at 10 uM treated at 6 hrs post-viral infection and measured after 48 hrs by real time RT-PCR method; assay type: functional; conditions: not given

| SMILES | log(activity) |
| --- | --- |
| N/C(=N\O)c1cccc(-c2ccc3c(c2)c2cc(-c4cccc(/C(N)=N/O)c4)ccc2n3Cc2cccc(Br)c2)c1 | 3 |
| COc1cccc(S(=O)(=O)n2c3ccc(-c4cccc(/C(N)=N/O)c4)cc3c3cc(-c4cccc(/C(N)=N/O)c4)ccc32)c1 | 2 |

test system: dengue virus type 2; assay: Antiviral activity against DENV2 infected in human Huh-7 cells assessed as viral infection rate at 10 uM treated at 6 hrs post-viral infection and measured at 30 hrs post-infection by confocal microscopy (reference value: 50 to 60%); assay type: functional; conditions: time 24 hrs

| SMILES | Activity [%] |
| --- | --- |
| N/C(=N\O)c1cccc(-c2ccc3c(c2)c2cc(-c4cccc(/C(N)=N/O)c4)ccc2n3Cc2cccc(Br)c2)c1 | 10 |
| COc1cccc(S(=O)(=O)n2c3ccc(-c4cccc(/C(N)=N/O)c4)cc3c3cc(-c4cccc(/C(N)=N/O)c4)ccc32)c1 | 30 |

test system: dengue virus type 2; assay: Antiviral activity against DENV2 infected in human Huh-7 cells assessed as log reduction in intracellular viral RNA synthesis at 10 uM treated at 6 hrs post-viral infection and measured after 38 hrs by real time RT-PCR method; assay type: functional; conditions: not given

| SMILES | log(activity) | Activity |
| --- | --- | --- |
| N/C(=N\O)c1cccc(-c2ccc3c(c2)c2cc(-c4cccc(/C(N)=N/O)c4)ccc2n3Cc2cccc(Br)c2)c1 | 2 |  |
| COc1cccc(S(=O)(=O)n2c3ccc(-c4cccc(/C(N)=N/O)c4)cc3c3cc(-c4cccc(/C(N)=N/O)c4)ccc32)c1 |  | inactive |

test system: dengue virus type 2; assay: Antiviral activity against DENV2 infected in human Huh-7 cells assessed as reduction in intracellular viral RNA synthesis at 10 uM treated at 6 hrs post-viral infection and measured after 48 hrs by real time RT-PCR method; assay type: functional, organism-based; conditions: not given

| SMILES | Activity |
| --- | --- |
| N/C(=N\O)c1cccc(-c2ccc3c(c2)c2cc(-c4cccc(/C(N)=N/O)c4)ccc2n3Cc2cccc(Br)c2)c1 | inactive |
| COc1cccc(S(=O)(=O)n2c3ccc(-c4cccc(/C(N)=N/O)c4)cc3c3cc(-c4cccc(/C(N)=N/O)c4)ccc32)c1 | inactive |

molecular target: Genome polyprotein (dengue virus type 2) (UniProt P29990); assay: Inhibition of NS2B-NS3 protease in DENV2 infected in human Huh-7 cells assessed as inhibition of NS3 internal cleavage site at 10 uM treated 6 hrs […] viral infection and measured at 30 hrs post-infection by western blot analysis; assay type: cell-based; conditions: time 24.0 hrs

| SMILES | inhibition |
| --- | --- |
| N/C(=N\O)c1cccc(-c2ccc3c(c2)c2cc(-c4cccc(/C(N)=N/O)c4)ccc2n3Cc2cccc(Br)c2)c1 | Active |
| COc1cccc(S(=O)(=O)n2c3ccc(-c4cccc(/C(N)=N/O)c4)cc3c3cc(-c4cccc(/C(N)=N/O)c4)ccc32)c1 | Active |
